“Also recorded” adds a separate entry of the source.
Experiments:
[1] = target: T1, CYP 3A4 (Homo sapiens, UniProt P08684); assay: CYP (cytochrome P450)-suppressing effect, BD GENTEST kit; type: in vitro ADME
T1 construct: purchased BD GENTEST 459500
Procedure: (§1) To evaluate the CYP (cytochrome P450)-suppressing activity of the compounds prepared in the examples of the invention, the following experiment was performed.
(§2) The analysis of CYP1A2, 2C19, and 3A4 suppressing activity was performed by using a BD GENTEST (459100, 459400, and 459500) kit, and the analysis of CYP 2C9- and 2D6-suppressing activity was performed by using an Invitrogen (P2861 and P2862) kit.
(§3) When the BD GENTEST kit was used, the compounds of the present invention were diluted in acetonitrile at the final concentration of 50×. The NADPH-Cofactor mix was prepared by diluting the Cofactor, G6PDH, and control protein provided by the kit in DW according to the instructed concentration. 4 μL of the compound of the example (50×) was mixed with 96 μL of NADPH-Cofactor mix in a 96-well plate, followed by pre-incubation in a 37° C. incubator for 10 minutes.
(§4) The enzyme/substrate mixture was diluted in the buffer (0.5 M potassium phosphate, pH 7.4) provided by the kit according to the instructed concentration. Each CYP450 enzyme substrate was diluted in DW at a desired concentration respectively according to the corresponding types of CYP450. 100 μL of the enzyme/substrate mixture was loaded in the plate when the pre-incubation had been completed, followed by reaction in a 37° C. incubator for 15 minutes (1A2) and 30 minutes (3A4 and 2C19). Upon completion of the reaction, the mixture was transferred to a white plate, and the fluorescent wavelength was measured with a microplate reader (1A2, 2C19 excitation 410 nm, emission 460 nm; 3A4, excitation 409 nm, emission 530 nm).
(§5) The test results were calculated by the following formula:
(§6) (1−(fluorescence value of the test material/fluorescence value of the vehicle))×100%.

[2] = target: T2, CYP 2C19 (Homo sapiens, UniProt P33261); assay: as above; type: in vitro ADME
T2 construct: purchased BD GENTEST 459400
Procedure: as §1, §2, §3, §4, §5, §6

[3] = target: T3, CYP1A2 (Homo sapiens, UniProt P05177); assay: as above; type: in vitro ADME
T3 construct: purchased BD GENTEST 459100
T3 sequence (P05177 1-516): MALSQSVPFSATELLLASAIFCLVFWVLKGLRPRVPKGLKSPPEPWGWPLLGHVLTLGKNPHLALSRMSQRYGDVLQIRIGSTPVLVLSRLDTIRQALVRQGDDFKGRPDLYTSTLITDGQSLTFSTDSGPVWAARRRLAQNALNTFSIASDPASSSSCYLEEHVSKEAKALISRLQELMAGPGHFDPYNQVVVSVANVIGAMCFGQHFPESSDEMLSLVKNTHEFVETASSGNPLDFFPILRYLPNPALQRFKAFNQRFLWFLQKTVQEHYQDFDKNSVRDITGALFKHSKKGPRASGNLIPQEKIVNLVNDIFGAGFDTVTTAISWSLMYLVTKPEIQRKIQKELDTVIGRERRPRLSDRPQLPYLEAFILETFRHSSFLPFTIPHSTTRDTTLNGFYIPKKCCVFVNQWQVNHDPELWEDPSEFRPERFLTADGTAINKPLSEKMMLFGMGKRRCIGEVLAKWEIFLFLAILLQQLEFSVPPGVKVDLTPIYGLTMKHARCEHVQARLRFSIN
Procedure: as §1, §2, §3, §4, §5, §6

[4] = target: T4, CYP 2C9 (Homo sapiens, UniProt P11712); assay: CYP (cytochrome P450)-suppressing effect, Invitrogen Vivid kit; type: in vitro ADME
T4 construct: purchased Invitrogen P2861
Procedure: as §1, §2
(§7) When the Invitrogen kit was used, the compounds of the present invention were diluted in Vivid CYP450 reaction buffer (1×) at the final concentration of 2.5×. The P450 BACULOSOMES sample and Regeneration system (100×) were diluted in Vivid CYP450 reaction buffer (1×) at different proper concentrations. 80 μL of the compound of the invention (2.5×) and […] of the diluted P450 BACULOSOMES sample mixture were mixed in a U-bottom 96-well plate, followed by pre-incubation for 10 minutes. Vivid CYP450 Substrate and NADP+ (100×) were diluted in Vivid CYP450 reaction buffer (1×) at a desired concentration, respectively, according to their corresponding types of CYP450 and substrates. 20 μL of Substrate-NADP+ mix was loaded in the plate when the pre-incubation had been completed, followed by reaction for 1 hour. Upon completion of the reaction, the reaction mixture was transferred in a white plate and fluorescent wavelength was measured with a microplate reader (2C9 excitation 415 nm, emission 460 nm, 2D6 excitation 400 nm, emission 502 nm).
as §5, §6

[5] = target: T5, CYP 2D6 (Homo sapiens, UniProt P10635); assay: as above; type: in vitro ADME
T5 construct: purchased Invitrogen P2862
Procedure: as §1, §2, §7, §5, §6

[6] = target: T6, PPARG (peroxisome proliferator activated receptor-gamma), GST-PPARG-LBD (Homo sapiens, UniProt P37231); assay: LanthaScreen TR-FRET PPARG Competitive Binding Assay; parameters: key: “+” indicates the degree of the binding activity, and as the number of “+” increases, the binding activity is stronger; ++: “+” indicates the degree of the binding activity, and as the number of “+” increases, the binding activity is stronger; +++: “+” indicates the degree of the binding activity, and as the number of “+” increases, the binding activity is stronger; ++++: “+” indicates the degree of the binding activity, and as the number of “+” increases, the binding activity is stronger; conditions: degree of binding activity
T6 construct: 15 μL of 5 nM GST-PPARG-LBD and 5 nM Tb-GST-antibody were added; purchased Invitrogen PV4894
T6 sequence (P37231 238-503 limits assumed): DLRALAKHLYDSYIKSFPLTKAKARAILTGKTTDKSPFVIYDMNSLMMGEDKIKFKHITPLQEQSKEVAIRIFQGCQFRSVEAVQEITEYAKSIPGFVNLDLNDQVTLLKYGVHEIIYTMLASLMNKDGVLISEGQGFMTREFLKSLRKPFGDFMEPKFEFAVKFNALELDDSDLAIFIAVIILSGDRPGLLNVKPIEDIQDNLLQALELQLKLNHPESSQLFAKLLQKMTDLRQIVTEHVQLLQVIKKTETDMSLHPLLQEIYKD
Summary of the method: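 Ratio of 518 nm to 488 nm time-resolved emission after a 1 h room-temperature incubation, in competition format with GST-PPARG ligand-binding domain. Values are expressed as 100% minus compound-to-vehicle ratio and related to rosiglitazone binding.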

[7] = system: CYP isozymes 1A2, 2C9, 2C19, and 2D6; assay: CYP suppression compared with comparative examples (Table 3); type: in vitro ADME; conditions: result in words
Procedure: as §1, §2, §7, §3, §4, §5, §6

T5 sequence (P10635 whole entry): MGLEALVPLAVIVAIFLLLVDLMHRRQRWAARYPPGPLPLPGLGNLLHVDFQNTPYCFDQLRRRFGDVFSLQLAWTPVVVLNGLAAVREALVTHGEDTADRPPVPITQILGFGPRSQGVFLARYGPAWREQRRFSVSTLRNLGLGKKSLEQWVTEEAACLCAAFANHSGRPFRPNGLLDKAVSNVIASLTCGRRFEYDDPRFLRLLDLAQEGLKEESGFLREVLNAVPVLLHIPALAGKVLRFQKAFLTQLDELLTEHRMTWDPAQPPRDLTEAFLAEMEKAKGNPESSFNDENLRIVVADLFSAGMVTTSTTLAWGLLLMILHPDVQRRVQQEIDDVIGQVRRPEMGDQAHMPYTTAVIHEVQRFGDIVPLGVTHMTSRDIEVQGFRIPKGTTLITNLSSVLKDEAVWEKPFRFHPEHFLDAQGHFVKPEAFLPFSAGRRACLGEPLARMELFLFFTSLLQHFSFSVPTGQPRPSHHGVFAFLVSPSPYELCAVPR
T1 sequence (P08684 whole entry): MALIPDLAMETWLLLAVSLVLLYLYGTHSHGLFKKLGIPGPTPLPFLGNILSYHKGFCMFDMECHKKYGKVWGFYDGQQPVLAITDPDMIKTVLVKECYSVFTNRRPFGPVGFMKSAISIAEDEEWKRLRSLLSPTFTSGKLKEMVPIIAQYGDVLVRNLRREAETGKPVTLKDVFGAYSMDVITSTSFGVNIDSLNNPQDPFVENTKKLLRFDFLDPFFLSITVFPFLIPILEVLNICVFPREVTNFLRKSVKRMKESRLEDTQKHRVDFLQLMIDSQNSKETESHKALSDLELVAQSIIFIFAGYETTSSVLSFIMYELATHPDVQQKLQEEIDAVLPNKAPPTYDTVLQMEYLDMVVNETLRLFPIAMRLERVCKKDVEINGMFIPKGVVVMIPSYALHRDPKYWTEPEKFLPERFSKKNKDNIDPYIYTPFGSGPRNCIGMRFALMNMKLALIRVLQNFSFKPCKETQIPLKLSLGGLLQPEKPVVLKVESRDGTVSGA
T2 sequence (P33261 whole entry): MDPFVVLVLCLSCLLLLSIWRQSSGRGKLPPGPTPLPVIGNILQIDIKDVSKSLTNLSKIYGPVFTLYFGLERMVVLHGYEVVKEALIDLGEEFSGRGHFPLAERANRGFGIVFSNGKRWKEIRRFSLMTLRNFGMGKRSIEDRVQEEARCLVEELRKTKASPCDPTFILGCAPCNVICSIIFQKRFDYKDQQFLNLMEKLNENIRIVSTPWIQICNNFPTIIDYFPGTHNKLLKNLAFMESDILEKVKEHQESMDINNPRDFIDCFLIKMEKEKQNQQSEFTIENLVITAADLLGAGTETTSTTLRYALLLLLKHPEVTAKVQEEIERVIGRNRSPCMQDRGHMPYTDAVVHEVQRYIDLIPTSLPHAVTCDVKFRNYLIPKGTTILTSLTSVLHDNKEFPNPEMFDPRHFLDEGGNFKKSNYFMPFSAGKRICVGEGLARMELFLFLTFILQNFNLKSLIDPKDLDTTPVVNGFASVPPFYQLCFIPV
T4 sequence (P11712 whole entry): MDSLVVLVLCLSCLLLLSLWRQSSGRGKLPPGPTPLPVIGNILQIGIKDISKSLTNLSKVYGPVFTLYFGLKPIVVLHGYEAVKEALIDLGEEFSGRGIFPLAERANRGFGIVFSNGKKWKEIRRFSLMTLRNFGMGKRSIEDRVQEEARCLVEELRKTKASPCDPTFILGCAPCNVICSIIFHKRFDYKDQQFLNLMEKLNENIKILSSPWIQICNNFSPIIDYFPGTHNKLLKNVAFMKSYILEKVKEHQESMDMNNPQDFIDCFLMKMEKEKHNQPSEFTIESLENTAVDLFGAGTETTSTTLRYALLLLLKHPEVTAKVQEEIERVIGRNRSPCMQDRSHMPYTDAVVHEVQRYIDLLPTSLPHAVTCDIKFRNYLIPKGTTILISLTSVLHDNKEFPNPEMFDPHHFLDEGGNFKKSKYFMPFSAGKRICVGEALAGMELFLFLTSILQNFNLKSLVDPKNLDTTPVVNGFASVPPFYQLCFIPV

CYP(10 μL, %) 3A4 [1]	CYP(10 μL, %) 2C19 [2]	CYP(10 μL, %) 1A2 [3]	CYP(10 μL, %) 2C9 [4]	CYP(10 μL, %) 2D6 [5]	Binding assay (1 μLM) [6]	SMILES	suppression of CYP isozymes 1A2, 2C9, 2C19, and 2D6 compared with SR1664 and SR1824 [7]
59.17%	75.69%	100.32%	58.87%	82.59%	+++	C[C@H](NC(=O)c1ccc2c(c1)CCCN2Cc1ccc(-c2ccccc2C(=O)[O-])cc1)c1ccc(C#N)cc1.[Na+] [Example 57, sodium (S)-4′-((6-((1-(4-cyanophenyl)ethyl)carbamoyl)-3,4-dihydroquinoline-1(2H)-yl)methyl)-[1,1′-biphenyl]-2-carboxylate]	less than the compounds of the comparative examples; also recorded: less strongly than the compounds of the Comparative Examples
81.98%	91.36%	102.89%	80.68%	83.97%	+	C[C@H](NC(=O)c1ccc2c(c1)OCCN2Cc1ccc(-c2ccccc2C(=O)O)cc1)c1ccc(C#N)cc1 [Example 74, (S)-4′-((7-((1-(4-cyanophenyl)ethyl)carbamoyl)-2H-benzo[b][1,4]oxazine-4(3H)-yl)methyl)-[1,1′-biphenyl]-2-carboxylic acid]	less than the compounds of the comparative examples; also recorded: less strongly than the compounds of the Comparative Examples
98.04%	52.35%	92.41%	57.63%	98.66%	+++	C[C@H](NC(=O)c1ccc2c(c1)OCCN2Cc1ccc(-c2ccccc2C(N)=O)cc1)c1ccc2ccccc2c1 [Example 96, (S)-4-((2′-carbamoyl-[1,1′-biphenyl]-4-yl)methyl)-N-(1-(naphthalene-2-yl)ethyl)-3,4-dihydro-2H-benzo[b][1,4]oxazine-7-carboxamide]	less than the compounds of the comparative examples; also recorded: less strongly than the compounds of the Comparative Examples
53.03%	69.53%	97.28%	55.18%	88.44%	+++	C[C@H](NC(=O)c1ccc2c(c1)CCCN2Cc1ccc(-c2ccccc2C(=O)O)cc1F)c1ccc(C#N)cc1 [Example 110, (S)-4′-((6-((1-(4-cyanophenyl)ethyl)carbamoyl)-3,4-dihydroquinoline-1(2H)-yl)methyl)-3′-fluoro-[1,1′-biphenyl]-2-carboxylic acid]	less than the compounds of the comparative examples; also recorded: less strongly than the compounds of the Comparative Examples
85.01%	54.70%	97.27%	67.73%	78.65%	++	C[C@H](NC(=O)c1ccc2c(c1)CCCN2Cc1ccc(-c2ccccc2C(N)=O)cc1F)c1ccc([N+](=O)[O-])cc1 [Example 113, (S)-1-((2′-carbamoyl-3-fluoro-[1,1′-biphenyl]-4-yl)methyl)-N-(1-(4-nitrophenyl)ethyl)-1,2,3,4-tetrahydroquinoline-6-carboxamide]	less than the compounds of the comparative examples; also recorded: less strongly than the compounds of the Comparative Examples
77.73%	59.33%	97.62%	63.87%	95.56%	+++	C[C@H](NC(=O)c1ccc2c(c1)CCCN2Cc1ccc(-c2ccccc2C(N)=O)cc1F)c1ccc2ccccc2c1 [Example 115, (S)-1-((2′-carbamoyl-3-fluoro-[1,1′-biphenyl]-4-yl)methyl)-N-(1-(naphthalene-2-yl)ethyl)-1,2,3,4-tetrahydroquinoline-6-carboxamide]	less than the compounds of the comparative examples; also recorded: less strongly than the compounds of the Comparative Examples

SMILES	CYP(10 μL, %) 3A4 [1]	CYP(10 μL, %) 2C19 [2]	CYP(10 μL, %) 1A2 [3]	CYP(10 μL, %) 2C9 [4]	CYP(10 μL, %) 2D6 [5]	Binding assay (1 μLM) [6]	suppression of CYP isozymes 1A2, 2C9, 2C19, and 2D6 compared with SR1664 and SR1824 [7]
C[C@H](NC(=O)c1ccc2c(c1)OCCN2Cc1ccc(-c2ccccc2C(=O)O)cc1)c1ccccc1 [Example 58, (S)-4′-((7-((1-phenylethyl)carbamoyl)-2H-benzo[b][1,4]oxazine-4(3H)-yl)methyl)-[1,1′-biphenyl]-2-carboxylic acid]	56.92%	70.53%	100.93%	57.47%	55.23%	+	less than the compounds of the comparative examples; also recorded: less strongly than the compounds of the Comparative Examples
C[C@H](NC(=O)c1ccc2c(c1)OCCN2Cc1ccc(-c2ccccc2C(=O)O)cc1)c1ccc([N+](=O)[O-])cc1 [Example 60, (S)-4′-((7-((1-(4-nitrophenyl)ethyl)carbamoyl)-2H-benzo[b][1,4]oxazine-4(3H)-yl)methyl)-[1,1′-biphenyl]-2-carboxylic acid]	70.64%	69.60%	100.63%	80.25%	62.27%	++	less than the compounds of the comparative examples; also recorded: less strongly than the compounds of the Comparative Examples

From patent publication US20160355483A1, “COMPOUND BINDING TO PPARG BUT NOT ACTING AS PROMOTER AND PHARMACEUTICAL COMPOSITION FOR TREATING PPARG-RELATED DISEASES CONTAINING SAME AS ACTIVE INGREDIENT” (Hyundai Pharm Co., Ltd., priority 2014, published 2016)
